Results as given in patent US7718651B2, “Inhibitors of FtsZ and uses thereof” (priority 2002, dated 2010).

tested on: M. tuberculosis H37Rv; assay: microbe, parasite or virus in culture; assay type: cell-based; conditions: M. tuberculosis H37Rv, screen concentration 12.5 g/ml [sic], Table 8

Row | Structure (SMILES) | % Inh [%]
1 | CCOC(=O)Nc1cc(NCC(O)CN(C)c2ccccc2)c(N)c(NC(=O)OCC)n1 (centres unmarked) [Compound A169] | 7
2 | CCOC(=O)Nc1cc2c(c(N)n1)N=C(c1ccc(O)cc1)[C@H](C)N2 [Compound A170] | 7
3 | CCCCNC(=O)Oc1ccc(C2=Nc3c(cc(NC(=O)OCC)nc3N)N[C@@H]2C)cc1 [Compound A171] | 7
4 | CCOC(=O)Nc1cc(NC(C)/C(=N/O)c2ccccc2)c([N+](=O)[O-])c(N)n1 (centres unmarked) [Compound A172] | 5
5 | CCOC(=O)Nc1cc(N[C@H](C)[C@H](O)c2ccc(O)cc2)c([N+](=O)[O-])c(N)n1 [Compound A173] | 5
6 | CCCCC(Nc1cc(NC(=O)OCC)nc(N)c1N)C(C)O (centres unmarked) [Compound A174] | 5
7 | CCOC(=O)Nc1cc(NC(c2ccccc2)c2ccccc2)c([N+](=O)[O-])c(NC(=O)OCC)n1 [Compound A175] | 5
8 | COC(=O)Nc1cc(NC(C)/C(=N/O)c2ccccc2)c([N+](=O)[O-])c(N)n1 (centres unmarked) [Compound A176] | 4
9 | COC(=O)Nc1cc(NC(C)/C(=N/O)c2cccc([N+](=O)[O-])c2)c([N+](=O)[O-])c(N)n1 (centres unmarked) [Compound A177] | 4
10 | CCOC(=O)Nc1cc(N[C@@H](C)[C@@H](O)c2ccc(O)cc2)c([N+](=O)[O-])c(N)n1 [Compound A178] | 4
11 | CCOC(=O)Nc1cc(NC(C)C(O)c2ccc(O)cc2)c(N)c(N)n1 (centres unmarked) [Compound A179] | 4
12 | CCCCC(=O)C(C)Nc1cc(NC(=O)OC)nc(N)c1[N+](=O)[O-] (centres unmarked) [Compound A180] | 3
13 | CCCCC(O)C(C)Nc1cc(NC(=O)OCC)nc(N)c1N (centres unmarked) [Compound A181] | 3
14 | CCOC(=O)Nc1cc(NC/C(=N/O)c2ccc(OC)cc2)c([N+](=O)[O-])c(N)n1 [Compound A182] | 2
15 | CCOC(=O)Nc1cc(NC(C)C(=O)c2ccc(O)cc2)c([N+](=O)[O-])c(N)n1 (centres unmarked) [Compound A183] | 2
16 | CCOC(=O)Nc1cc(Cl)cc(NC(=O)OCC)n1 [Compound A185] | 2
17 | CCOC(=O)Nc1cc(NC(C)/C(=N/O)c2ccc(O)cc2)c([N+](=O)[O-])c(N)n1 (centres unmarked) [Compound A186] | 1
18 | CCOC(=O)Nc1cc(Cl)c2ncc(-c3ccc(Cl)cc3)nc2n1 [Compound A187] | 1
19 | O=C(Nc1cc(Cl)cc(NC(=O)OCc2ccccc2)n1)OCc1ccccc1 [Compound A188] | 1
20 | CCOC(=O)Nc1cc2c(c(N)n1)N=C(c1cccc(OC)c1)CO2 [Compound A190] | 0
21 | CCOC(=O)Nc1cc2c(c(N)n1)N=C(c1ccc(OC)cc1)CO2 [Compound A192] | 0
22 | CCOC(=O)Nc1cc2c(c(N)n1)N=C(c1ccc(OC)c(OC)c1)CO2 [Compound A193] | 0
23 | CCOC(=O)Nc1nc(NC(=O)OCC)c2c(c1N)NC(C)C(c1ccccc1)=N2 (centres unmarked) [Compound A194] | 0
24 | CCOC(=O)Nc1cc2[nH]c(=O)c(-c3ccccc3)nc2c(NC(c2ccccc2)c2ccccc2)n1 [Compound A195] | 0
25 | CCOC(=O)Nc1cc2[nH]c(=O)c(-c3ccccc3)nc2c(N)n1 [Compound A196] | 0
26 | CCOC(=O)Nc1cc2c(c(N)n1)N=C(c1ccc(O)cc1)C(C)N2 (centres unmarked) [Compound A197] | 0
27 | CCOC(=O)Nc1cc(N[C@H](C)C(=O)c2ccccc2)c([N+](=O)[O-])c(N)n1 [Compound A198] | 0
28 | CCOC(=O)Nc1cc2c3c(n1)[nH]c(=S)n3c(=S)n2N [Compound A199] | 0
29 | CCOC(=O)Nc1cc2c([nH]c(=S)n2N)c(N)n1 [Compound A200] | 0
